We go through 11 compounds from paper PMC2228302, “Crystal structure of Leishmania tarentolae hypoxanthine-guanine phosphoribosyltransferase” (BMC Structural Biology, 2007).

One assay has as its target Leishmania HGPRT (Leishmania tarentolae, UniProt Q9NJI5, D188E/G191E/H176R/L189Y/T185D/V183G/V192L/W184M). Description: biochemical. Conditions: IC50, Leishmania HGPRT; approximate value stated in text. Here is the method:
The HGPRT enzyme inhibition assay was performed for 1 min in a 1 ml reaction volume containing 100 mM Tris-HCl, 5 mM MgSO4, 1 mM PRPP, 0.04 mM guanine at pH 7.4 [41]. An extinction coefficient of 4.2 was used.
For `Oc1ncnc2[nH]ncc12` [allopurinol], the 50% inhibitory concentration (IC50) is roughly 200 µM.

The assay is the same for the next values; noted with them: IC50, recombinant L. tarentolae HGPRT; 1 min, 1 mM PRPP, 0.04 mM guanine, pH 7.4; six inhibitor concentrations in triplicate.
With `Nc1nc2c(nc(N)n2[C@@H]2O[C@H](CO)[C@@H](O)[C@H]2O)c(=O)[nH]1` [8-aminoguanosine], the IC50 turned out to be 94 µM.

In the case of `O=C(O)c1cc(=O)[nH]c(=O)[nH]1` [Orotic acid], the 50% inhibitory concentration (IC50) was 432 µM.

For the compound `Oc1ncnc2[nH]ncc12` [allopurinol], the half-maximal inhibitory concentration (IC50) turned out to be 194 µM.

For the compound `CO/N=C(\C(=O)N[C@@H]1C(=O)N2C(C(=O)O)=C(COC(C)=O)CS[C@H]12)c1csc(N)n1` [cefotaxime], the concentration for half-maximal inhibition (IC50) worked out at 180 µM.

Staying with this assay, now noted: recombinant L. tarentolae HGPRT; 1 min, 1 mM PRPP, 0.04 mM guanine, pH 7.4; six inhibitor concentrations in triplicate; read-out: IC50.
With `O=c1[nH]c(=O)n([C@H]2C[C@H](O)[C@@H](CO)O2)cc1Br` [5-bromodeoxiuridine], the IC50 came to 350 µM.

For the compound `Cc1cnc(=O)[nH]c1N` [5-metilcitosine], the IC50 stood at 412 µM.

For the compound `Nc1nc(Cl)c2[nH]cnc2n1` [6-cloroguanine], the half-maximal inhibitory concentration (IC50) worked out at 838 µM.

Regarding `O=c1[nH]cnc2c([C@@H]3O[C@H](CO)[C@@H](O)[C@H]3O)n[nH]c12` [formicin B], the IC50 was found to be 260 µM.

Take `Nc1ncnc2c1ccn2[C@@H]1O[C@H](CO)[C@@H](O)[C@H]1O` [tubercidine]: the IC50 was 533 µM.

For azaadenine, the half-inhibitory concentration (IC50) stood at 210 µM.

Another assay addresses Leishmania tarentolae hypoxanthine-guanine phosphoribosyltransferase (Leishmania tarentolae). Description: crystal structure; co-crystallized with GMP in 19% PEG 4000, 20.6% isopropanol, 5% glycerol, 95 mM tri-sodium citrate, pH 5.6; space group P212121; two monomers (chains A and B) in the asymmetric unit; 2.1 Å.
Settings: not given
For “Leishmania tarentolae hypoxanthine-guanine phosphoribosyltransferase (enzyme)”, the stoichiometry N is 2.

One may read the IC50 as the concentration at which inhibition is half-maximal. The stoichiometry N is the number of molecules, sites or subunits per partner or assembly.
